We go through one compound from patent US9670261B2 (Sanofi, priority 2012, dated 2017).

The structures appear in SMILES notation. *1 amine or outer side, *2 acyl side, *3 side chain or, on linkers, in order; H or OH if unused. Where a SMILES comes first, the peptide text is derived from it. Side-chain parts run from the residue outwards. [ ]: non-standard residue; d: D form. The star is where a group is joined. γGlu = O=C(O)[C@H](CCC(=O)[*:2])N[*:1]; Palmitoyl = CCCCCCCCCCCCCCCC(=O)*; Aib = CC(C)(N)C(=O)O

The subject of series [1] is female leptin-receptor deficient diabetic db/db mice. Briefly: Blood glucose and HbA1c in leptin-receptor deficient diabetic db/db mice (method 3). It counts as in vivo. The essentials: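 Female db/db mice (9–10 weeks at arrival) dosed at 5 mL/kg for 4 weeks with free food and water. Tail blood without anaesthesia: glucose by hexokinase and HbA1c measured before and at end of treatment, plus a 24-h glucose profile; repeated-measures two-way ANOVA with Dunnett's versus vehicle db/db, p<0.05.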

The subject of series [2] is female diet-induced obese (DIO) C57BL/6NCrl mice. Briefly: Blood glucose and body weight in DIO mice, 18 weeks on high-fat diet (method 1). It counts as in vivo. The settings on record: for decrease of body weight, relative change from baseline: 4 weeks; for Bodyfat change / Overall weight change: 4-week treatment, mean ± SEM. The method, then:
Female C57BL/6NCrl mice were housed in groups in a specific pathogen-free barrier facility on a 12 h light/dark cycle with free access to water and high-fat diet. After 18 weeks on high-fat diet, mice were stratified to treatment groups (n=8), so that each group had similar mean body weight. An aged-matched group with ad libitum access to standard chow was included as standard control group.
Before the experiment, mice were subcutaneously (s.c.) injected with vehicle solution and weighed for 3 days to acclimate them to the procedures.
The volume of administration was 5 mL/kg. The animals had access to water and their corresponding diet during the experiment, food consumption was determined at all time points of blood sampling. Blood glucose levels were measured at t=0.5 h, t=1 h, t=2 h, t=4 h, t=6 h, t=8 h, and t=24 h (method: d-glucose hexokinase, hemolysate, AU640 Beckman Coulter). Blood sampling was performed by tail incision without anaesthesia.
Body weight was recorded daily. On days 6 and 28, total fat mass was measured by nuclear magnetic resonance (NMR) using a Bruker minispec (Ettlingen, Germany).
Statistical analyses were performed with Everstat 6.0 by repeated measures two-way ANOVA and Dunnett's post-hoc analyses (glucose profile) and 1-way-ANOVA, followed by Dunnett's post-hoc test (body weight, body fat). Differences versus vehicle-treated DIO control mice were considered statistically significant at the p<0.05 level.
Diet-induced obese female C57BL/6NCrl mice were administered daily in the afternoon, at the end of the light phase (12 h lights on) with 10, 30 and 100 μg/kg of SEQ ID NO: 9 or phosphate buffered solution (vehicle control on standard or high-fat diet) subcutaneously. On day 6 of treatment and at predefined time points, more blood samples were taken to measure blood glucose and generate the blood glucose profile over 24 h.
Female obese C57BL/6NCrl mice were treated for 4 weeks once daily subcutaneously in the afternoon, at the end of the light phase (12 h lights on) with 10, 30 or 100 μg/kg SEQ ID NO: 9 or vehicle. Body weight was recorded daily, and body fat content was determined before the start of treatment and after 4 weeks of treatment.

The nature of series [3]: Chemical stability in solution, 7 days at 25° C. (% remaining peptide). The settings on record: % remaining peptide after 7 days at 25° C.
Method: After that time course, the sample was centrifuged for 20 min at 4000 rpm and the supernatant was analysed with HPLC-UV. For determination of the amount of the remaining peptide, the peak areas of the target compound at t0 and t7 were compared, resulting in “% remaining peptide”, following the equation % remaining peptide=[(peak area peptide t7)×100]/peak area peptide t0.
The chemical stability is expressed as “% remaining peptide”.
The test system of the next series is female NMRI-mice. Briefly: Automated assessment of 22-hours feed intake in mice. It counts as in vivo. The method, then: Female NMRI-mice of a body weight between 20 and 30 g were used. Mice were adapted to housing conditions for at least one week and for at least one day single-caged in the assessment equipment, when basal data were recorded simultaneously. On the study day, test product was administered subcutaneously close to the lights-off phase (12 h lights off) and assessment of feed consumption was directly started afterwards. Assessment included continued monitoring over 22 hours, while data are processed as mean over every 30 min. Repetition of this procedure over several days was possible. Restriction of assessment to 22 hours was for practical reasons to allow for reweighing of animals, refilling of feed and water and drug administration between procedures. Results could be assessed as cumulated data over 22 hours or differentiated to 30 min intervals. […] Statistical analyses were performed with Everstat 6.0 by two-way ANOVA on repeated measures and Dunnett's post-hoc analyses. Differences were considered statistically significant at the p<0.05 level. […] Lights-off phase (dark phase) started 4 hours later. […].

On to `CCCCCCCCCCCCCCCC(=O)N[C@@H](CCC(=O)NCCCC[C@H](NC(=O)[C@H](CCC(N)=O)NC(=O)[C@@H](NC(=O)[C@H](CO)NC(=O)[C@H](CC(C)C)NC(=O)[C@H](CC(=O)O)NC(=O)[C@H](CO)NC(=O)[C@@H](NC(=O)[C@H](Cc1ccccc1)NC(=O)[C@@H](NC(=O)CNC(=O)[C@H](CCC(=O)O)NC(=O)C(C)(C)NC(=O)[C@@H](N)Cc1ccc(O)cc1)[C@@H](C)O)[C@@H](C)O)[C@@H](C)CC)C(=O)N[C@@H](CCC(=O)O)C(=O)N[C@@H](CCCCN)C(=O)N[C@@H](CCCNC(=N)N)C(=O)N[C@@H](C)C(=O)N[C@@H](C)C(=O)NC(C)(C)C(=O)N[C@@H](CCC(=O)O)C(=O)N[C@@H](Cc1ccccc1)C(=O)N[C@H](C(=O)N[C@@H](CCC(=O)O)C(=O)N[C@@H](Cc1c[nH]c2ccccc12)C(=O)N[C@@H](CC(C)C)C(=O)N[C@@H](CCCCN)C(=O)N[C@@H](CC(N)=O)C(=O)N[C@H](C(=O)NCC(=O)N1CCC[C@H]1C(=O)N[C@@H](CO)C(=O)N[C@@H](CO)C(=O)NCC(=O)N[C@@H](C)C(=O)N1CCC[C@H]1C(=O)N1CCC[C@H]1C(=O)N1CCC[C@H]1C(=O)N[C@@H](CO)C(N)=O)[C@@H](C)O)[C@@H](C)CC)C(=O)O` [SEQ ID NO: 9, Y-Aib-E-G-T-F-T-S-D-L-S-I-Q-K(γE-x53)-E-K-R-A-A-Aib-E-F-I-E-W-L-K-N-T-G-P-S-S-G-A-P-P-P-S-NH2] (H-Y[Aib]EGTFTSDLSIQK([γGlu-Palmitoyl])EKRAA[Aib]EFIEWLKNTGPSSGAPPPS-NH2), for which the “HbA1c level versus db/db control mice at the end of the study” value in series [1] (10, 30 and 100 μg/kg s.c. once daily, 4 weeks, all three doses) is “lower HbA1c level”. Further, the “blood glucose level versus db control mice at the end of the study” value in series [1] (10, 30 or 100 μg/kg s.c. once daily, 4 weeks) is recorded as “significant lower blood glucose level”. For the same compound, the “blood glucose after 4 weeks of treatment” value in series [1] (10, 30 or 100 μg/kg s.c. once daily, 4 weeks, compared with liraglutide) was “strong and dose-dependent decrease in blood glucose, superior to liraglutide in the medium and highest dose”. Further, in series [1] (single 100 μg/kg s.c., fed db/db mice), the “blood glucose compared to db/db control mice, 24 h profile” value is reported as “significant decrease in blood glucose”. For the same compound, the “decrease of body weight, relative change from baseline” value is reported as 13.3-16.4% in series [2] (10 μg/kg s.c. once daily), 17.6-20.9% in series [2] (30 μg/kg s.c. once daily) and 21.7-22.7% in series [2] (100 μg/kg s.c. once daily). The values for the Bodyfat change in series [2] (10 μg/kg), in series [2] (30 μg/kg) and in series [2] (100 μg/kg) were -4.2 ± 0.4 g, -6.1 ± 0.4 g and -6.4 ± 0.5 g, respectively. The Overall weight change is -5.0 ± 0.5 g in series [2] (10 μg/kg), -6.9 ± 0.5 g in series [2] (30 μg/kg) and -7.3 ± 0.6 g in series [2] (100 μg/kg). In addition, the “basal blood glucose levels compared to DIO control mice” value in series [2] (day 6 of treatment, 10, 30 and 100 μg/kg s.c. daily) was “dose-dependently decreased”. Further, the “Stability (pH 4.5)” value in series [3] (pH 4.5) worked out at 92.5%. In series [3] (pH 7.4), the “Stability (pH 7.4)” value is listed as 97.7%. The “reduction of feed intake after 22 hours” value with female NMRI-mice (3 μg/kg s.c. (not significant, p=0.78)) amounted to 11%; with female NMRI-mice (10 μg/kg s.c.) it was 62%.
